Counter-ions that a name gives are not always drawn. Like-named read-outs stand apart in the source and are kept apart here.
What was measured:
[1] = system: cholesterol biosynthesis in HepG2 cells; test: Metabolic labeling of HepG2 cells with [3H]acetate; radio-HPLC sterol profile (inhibition of cholesterol biosynthesis); assay type: cell-based, human; conditions: for activity at 10 µM: Homo sapiens, 24 h, Table I, sterol level normalized to normal medium (1.00), mean of 4 experiments; for activity at 10 µM / FF-MAS / cholesterol / desmosterol / lanosterol / lathosterol / zymosterol+7-dehydrocholesterol: 10 μM compound; for activity at 10 µM / FF-MAS / cholesterol / desmosterol / lanosterol / lathosterol / zymosterol+7-dehydrocholesterol / all sterol levels (in words): HepG2; for FF-MAS / cholesterol / desmosterol / lanosterol / lathosterol / zymosterol+7-dehydrocholesterol: Table II (arranged by sterol profile), normalized to normal medium (1.00); for all sterol levels (in words): relative to normal medium (unity)
Protocol: In accordance with the aims of the invention, the effect of the novel compounds on inhibition of cholesterol biosynthesis is assessed. An ex vivo method of metabolic labeling of immortal human hepatocytes is employed. The radioactively labeled early precursor of cholesterol [3H]acetate is added to cells with or without addition of an active new compound.
An ex vivo method of metabolic labeling of immortal human hepatocytes is employed. The radioactively labeled early precursor of cholesterol [3H]acetate is added to cells with or without addition of an active compound.
Cell culture incubation with potential inhibitors of cholesterol biosynthesis and statins Human hepatoma cell line (HepG2-ATCC No. HB-8065) is split in the recommended ratio (1:2-3) into 75 cm^2 cell flasks using two flasks per experimental condition. Cells are incubated at 37° C. with 5% CO2 in Dulbeco's modified Eagle medium (DMEM high (Sigma)) containing 5% calf serum (Sigma) and 1% L-glutamine (Sigma). After 24-hours-culturing in the growth medium, the medium is replaced with the one supplemented with 10 μM concentration of a LK compound, potential inhibitor of cholesterol biosynthesis. 10 μM solution of atorvastatin, inhibitor of HMG-CoA reductase, serves as a positive control.
After 24 hours the growth medium is changed and [^3H]acetate (NEN™ Life Science Products) added in a concentration of 40 μCi per ml of the medium (400 μCi per flask). After 4 hours cells are harvested using 2 ml of trypsin (Sigma) and the cell pellet is resuspended in 1 ml of distilled water. Cells are homogenized using the freeze and thaw method. From cell homogenate sterols are extracted and protein concentration determined using the Bio-Rad reagent.
Homogenates are transferred into 4 ml glass vial and sterols are extracted in 3 ml of extraction solution (75% n-heptane: 25% isopropanol (vol./vol.)) with ergosterol as an internal standard. For better extraction 100 μl of 0.3M NaH2PO4 (pH=1.0) is added. Closed vials are vigorously shaken (1800 rpm) for 2 hours. After extraction procedure vials are centrifuged (2000 g, 10 min) and the organic phase is transferred to fresh conical glass tubes. Extraction procedure is repeated using 1 ml of extraction solution for 15 min. Organic phases are pooled. Primary extracts are dried in vacuum centrifuge, redissolved in 3 ml of n-heptane, and incubated for 10 min at room temperature with mild shaking. After centrifugation (10 min, 2000 g) extracts are transferred into fresh glass tubes and stored in dark and cold.
The organic phase is dried, reconstituted in mobile phase for reversed phase HPLC separation and loaded onto a-HPLC column, Prism-RPN, 5 μm, 250×4,6 mm running in 100% acetonitrile at 1.00 ml/min at 40° C. temperature. Scintillation liquid is added after UV detection at 30 ml/h, at room temperature, to evaluate tritium labeled sterols on a radio detector.
Sterols are determined by comparing the eluted peaks with runs of commercial standards of lanosterol, ergosterol, desmosterol, zymosterol, 7-dehydrocholesterol, lathosterol and cholesterol or laboratory standards (FF-MAS-4,4-Dimethylcholesta-8(9),14,24-triene-3β-ol- and T-MAS-4,4-Dimethylcholesta8(9),24,diene-3,6-ol, Laboratory of Reproductive Biology, The Juliane Marie Center for Children, Women and Reproduction, University Hospital of Copenhagen, DK-2100 Copenhagen, Denmark). Results were normalized on ergosterol quantity and protein concentration. Results are presented as a mean from 4 separated experiments.
The influence of a 10 μM solution of novel LK-substances on cholesterol biosynthesis in the assay on HepG2 cells is presented in Table I. Compounds are arranged according to the building blocks, three of them are 2-pyridineethanols, 2-pyridineethylpiperazines and pyridinemethylpiperazines.
Normal medium pertains to cell cultures without a compound of the invention. Its sterol levels were used for normalization. 10 μM solution of atorvastatin serves as a positive control.

[2] = read-out: zymosterol+7-dehydrocholesterol

| Structure (SMILES) | melting point | activity at 10 µM ([1]; read-out: FF-MAS) | activity at 10 µM ([1]; read-out: cholesterol) | activity at 10 µM ([1]; read-out: desmosterol) | activity at 10 µM ([1]; read-out: lanosterol) | activity at 10 µM ([1]; read-out: lathosterol) | activity at 10 µM [1, 2] | FF-MAS [1] | cholesterol [1] | desmosterol [1] | lanosterol [1] | lathosterol [1] | zymosterol+7-dehydrocholesterol [1] | all sterol levels (in words) ([1]; 10 μM) | de novo cholesterol biosynthesis (in words) ([1]; 10 μM, HepG2, radio-HPLC chromatograms) |
| --- | --- | --- | --- | --- | --- | --- | --- | --- | --- | --- | --- | --- | --- | --- | --- |
| OC(CN1CCN(CCc2ccccc2)CC1)c1cccnc1 (centres unmarked) (as salt: hydrobromid) [LK-980, 2-(4-Phenethylpiperazine-1-yl)-1-(pyridine3-yl)-1-ethanol trihydrobromide] | 178 to 181 °C |  |  |  |  |  |  |  |  |  |  |  |  |  |  |
| c1ccc(CCN2CCN(CCc3cccnc3)CC2)cc1 (as salt: hydrobromid) [LK-9100, 1-Phenethyl-4-(2-(pyridine-3-yl)ethyl)piperazine trihydrobromide] | 219 to 222 °C |  |  |  |  |  |  |  |  |  |  |  |  |  |  |
| COc1ccc(CN2CCN(CCc3ccccc3)CC2)cn1 (as salt: hydrobromid) [LK-9106, 1-((6-Methoxypyridin-3-yl)methyl)-4-phenethylpiperazine trihydrobromide] | 215 to 217 °C |  |  |  |  |  |  |  |  |  |  |  |  |  |  |
| FC(F)(F)c1ccc(CN2CCN(CCc3ccccc3)CC2)cn1 (as salt: hydrobromid) [LK-9107, 1-Phenethyl-4-((6(trifluoromethyl)pyridine-3-yl)methyl)piperazine trihydrobromide] | 225 to 228 °C |  |  |  |  |  |  |  |  |  |  |  |  |  |  |
| FC(F)(F)c1cnc(N2CCCN(CCc3ccccc3)CC2)c(Cl)c1 (as salt: hydrobromid) [LK-9115, 1-(3-Chloro-5-(trifluoromethyl)pyridine-2-yl)-4-phenethyl-1,4-diazepane trihydrobromide] | 175 to 177 °C |  |  |  |  |  |  |  |  |  |  |  |  |  |  |
| Fc1ccc(CCN2CCN(CCc3ccncc3)CC2)cc1F (as salt: hydrobromid) [LK-9131, 1-(3,4-di-Fluorophenethyl)-4-(2-(pyridin-4-yl)ethyl)piperazine trihydrobromide] | 256 to 259 °C |  |  |  |  |  |  |  |  |  |  |  |  |  |  |
| Clc1ccc(CCN2CCN(CCc3ccncc3)CC2)cc1Cl (as salt: hydrobromid) [LK-9135, 1-(3,4-Dichlorophenethyl)-4-(2-(pyridin-4-yl)ethyl)piperazine trihydrobromide] | 253 to 255 °C |  |  |  |  |  |  |  |  |  |  |  |  |  |  |
| Clc1ccc(CCN2CCN(CCc3ccccn3)CC2)cc1Cl (as salt: hydrobromid) [LK-9137, 1-(3,4-Dichlorophenethyl)-4-(2-(pyridin-2-yl)ethyl)piperazine trihydrobromide] | 207 to 209 °C |  |  |  |  |  |  |  |  |  |  |  |  |  |  |
| Fc1ccc(CCN2CCN(CCc3ccccn3)CC2)cc1F (as salt: hydrobromid) [LK-9138, 1-(3,4-Difluorophenethyl)-4-(2-(pyridin-2-yl)ethyl)piperazine trihydrobromide] | 212 to 213 °C |  |  |  |  |  |  |  |  |  |  |  |  |  |  |
| c1ccc(CCN2CCN(CCCc3cccnc3)CC2)cc1 (as salt: hydrobromid) [LK-9140, 1-Phenethyl-4-(3-(pyridine-3-yl)propyl)piperazine trihydrobromide] | 262 to 264 °C |  |  |  |  |  |  |  |  |  |  |  |  |  |  |
| OC(CN1CCN(c2ccc(F)cc2)CC1)c1cccnc1 (centres unmarked) (as salt: hydrobromid) [LK-9144, 2-(4-(4-Fluorophenyl)piperazine-1-yl)-1-(pyridine-3-yl)ethanol trihydrobromide] | 198 to 201 °C |  |  |  |  |  |  |  |  |  |  |  |  |  |  |
| Clc1ccc(CCN2CCN(CCc3ccccn3)CC2)cc1Cl [LK-9137, 1-(3,4-Dichlorophenethyl)-4-(2-(pyridin-2-yl)ethyl)piperazine trihydrobromide] |  | 142% | 6% | 22% | 63% | 60% | 141% | 1.42 | 0.06 | 0.22 | 0.63 | 0.60 | 1.41 |  |  |
| Fc1ccc(CCN2CCN(CCc3ccccn3)CC2)cc1F [LK-9138, 1-(3,4-Difluorophenethyl)-4-(2-(pyridin-2-yl)ethyl)piperazine trihydrobromide] |  | 70% | 1% | 7% | 25% | 8% | 21% | 0.70 | 0.01 | 0.07 | 0.25 | 0.08 | 0.21 | reduce all sterol levels below unity |  |
| Cc1ccc(C(O)CN2CCN(CCc3ccccc3)CC2)cn1 (centres unmarked) [LK-9139, 2-(4-Phenethylpiperazine-1-yl)-1-(6-methylpyridin-3-yl)ethanol trihydrobromide] |  | 119% | 1% | 14% | 38% | 15% | 38% | 1.19 | 0.01 | 0.14 | 0.38 | 0.15 | 0.38 |  |  |
| c1ccc(CCN2CCN(CCCc3cccnc3)CC2)cc1 [LK-9140, 1-Phenethyl-4-(3-(pyridine-3-yl)propyl)piperazine trihydrobromide] |  | 72% | 0% | 1% | 24% | 3% | 15% | 0.72 | 0.00 | 0.01 | 0.24 | 0.03 | 0.15 | reduce all sterol levels below unity |  |
| OC(CN1CCN(c2ccc(F)cc2)CC1)c1cccnc1 (centres unmarked) [LK-9144, 2-(4-(4-Fluorophenyl)piperazine-1-yl)-1-(pyridine-3-yl)ethanol trihydrobromide] |  | 99% | 9% | 5% | 88% | 56% | 150% | 0.99 | 0.09 | 0.05 | 0.88 | 0.56 | 1.50 |  |  |
| OC(CN1CCN(Cc2ccc(F)cc2)CC1)c1cccnc1 (centres unmarked) [LK-9148, 2-(4-(4-Fluorobenzyl)piperazine-1-yl)-1-(pyridine-3-yl)ethanol trihydrobromide] |  | 125% | 14% | 38% | 80% | 65% | 144% | 1.25 | 0.14 | 0.38 | 0.80 | 0.65 | 1.44 |  |  |
| CC(C)c1c(C(=O)Nc2ccccc2)c(-c2ccccc2)c(-c2ccc(F)cc2)n1CC[C@@H](O)C[C@@H](O)CC(=O)O [atorvastatin, reference compound] |  | 0% | 0% | 0% | 0% | 0% | 0% | 0.00 | 0.00 | 0.00 | 0.00 | 0.00 | 0.00 |  | complete suppression of cholesterol biosynthesis as well as cholesterol precursors |

Source: patent publication US20090018118A1, “HETEROCYCLIC COMPOUNDS” (priority 2005, published 2009)
